# Reference: patent publication US20060247255A1, “Method for preparing a stable gatifloxacin composition” (priority 2005, published 2006)
# Experiment: Polymorphic conversion testing after compression at 1 ton pressure and storage in different environments (DSC/FT-IR)
# Type: physicochemical
# Description: Polymorphic Conversion Testing after Compression at 1 Ton Pressure and Storage in Different Environments.
# Compacts of glatifloxacin anhydrous and gatifloxacin hemihydrate were prepared and placed in chambers that were equilibrated as follows:
# (i) 25° C. and 21% relative humidity (RH);
# (iii) 40° C. and 21% RH; and
# Compacts of glatifloxacin anhydrous and gatifloxacin hemihydrate were evaluated by DSC and FT-IR immediately after compression, after 2 days of exposure under the above conditions, and after 6 or 7 days of exposure.
# Conversion is identified as a change in DSC thermogram or FT-IR pattern.
# [1] = 6 or 7 Days at 25° C. and 21% RH
# [2] = 6 or 7 Days at 25° C. and 75% RH
# [3] = 6 or 7 Days at 40° C. and 21% RH
# [4] = 6 or 7 Days at 40° C. and 75% RH
SMILES,Conversion (change in DSC thermogram) (2 Days at 25° C. and 21% RH),Conversion (change in FT-IR pattern) (2 Days at 25° C. and 21% RH),Conversion (change in DSC thermogram) (2 Days at 25° C. and 75% RH),Conversion (change in FT-IR pattern) (2 Days at 25° C. and 75% RH),Conversion (change in DSC thermogram) (2 Days at 40° C. and 21% RH),Conversion (change in FT-IR pattern) (2 Days at 40° C. and 21% RH),Conversion (change in DSC thermogram) (2 Days at 40° C. and 75% RH),Conversion (change in FT-IR pattern) (2 Days at 40° C. and 75% RH),Conversion (change in DSC thermogram) [1],Conversion (change in FT-IR pattern) [1],Conversion (change in DSC thermogram) [2],Conversion (change in FT-IR pattern) [2],Conversion (change in DSC thermogram) [3],Conversion (change in FT-IR pattern) [3],Physical stability [3],Conversion (change in DSC thermogram) [4],Conversion (change in FT-IR pattern) [4],Conversion (change in DSC thermogram) (Immediately after compression),Conversion (change in FT-IR pattern) (Immediately after compression),further results
"COc1c(N2CCNC(C)C2)c(F)cc2c(=O)c(C(=O)O)cn(C3CC3)c12 (stereo not shown) [Gatifloxacin Anhydrous, 1-cyclopropyl-6-fluoro-1,4-dihydro-8-methoxy-7-(3-methyl-1-piperazinyl)-4-oxo-3-quinolinecarboxylic acid]",No/No,No/No,No/No,No/No,No/No,No/No,Yes/Yes,Yes/Yes,No/No,No/No,Yes/Yes,Yes/Yes,No/No,No/No,did not effect,Yes/Yes,Yes/Yes,No/No,No/No,Physical stability (approximately 75% RH for a period of 2 days): deleteriously effects the physical stability
"COc1c(N2CCNC(C)C2)c(F)cc2c(=O)c(C(=O)O)cn(C3CC3)c12 (stereo not shown) [Gatifloxacin Hemihydrate, 1-cyclopropyl-6-fluoro-1,4-dihydro-8-methoxy-7-(3-methyl-1-piperazinyl)-4-oxo-3-quinolinecarboxylic acid]",No/No,No/No,No/No,No/No,No/No,No/No,No/No,No/No,No/No,No/No,Yes,No,No/No,No/No,did not effect,Yes/Yes,Yes/Yes,No/No,No/No,Physical stability (approximately 75% RH for a period of at least 6 days): deleteriously effects the physical stability
